{"source": "patent US20080069785A1", "about": "“PEST-CONTROL COMPOSITIONS, AND METHODS AND PRODUCTS UTILIZING SAME” (priority 2004, published 2008)", "tested_on": "adult German cockroaches, Blattella germanica", "test": "Direct application toxicity test, comparison of insecticides including BioUD 10 (Table 23)", "assay_type": "in vivo", "conditions": "10 μL; adult female (F); individual cockroaches", "experimental": "Ten μL of BioUD™10, pure Undecanone, or Raid® were separately applied to the backs (thorax and wings) of adult German cockroaches, Blattella germanica. Insects were separately placed into FLUON®-treated diet cups (Vol.=30 mL, lower diam.=3 cm, height=4 cm) to prevent escape of treated specimens.", "note": "Where “and” joins values, the source holds several entries; their conditions need not be identical. Equal values may be shown once.", "data": [{"compound": "CCCCCCCCCC(C)=O", "note": "[Undecanone, 2-Undecanone]", "values": [{"measurement": "Time-to-death", "value": "47 s and 46 s and 1200 s and 57 s"}]}]}
